Active and inactive are the calls of the source. The calls are words filed in the database; no cut-off is given here.
Legend:
Type in all cases: functional, cell-based
HL-60 [1] = assay: Anticancer activity against Homo sapiens (human) HL60 cells assessed as inhibition of cell proliferation after 72 hr by MTT assay; details: for IC50: HL-60, 72 h
HCT-116 [2] = assay: Anticancer activity against Homo sapiens (human) HCT116 cells assessed as reduction in cell number after 48 hr by inverted phase contrast microscopic analysis
HCT-116 [3] = assay: Anticancer activity against Homo sapiens (human) HCT116 cells assessed as inhibition of cell proliferation after 72 hr by MTT assay; details: for IC50: HCT-116, 72 h
HL-60 [4] = assay: Anticancer activity against Homo sapiens (human) HL60 cells assessed as abnormal morphological changes after 48 hr by inverted phase contrast microscopic analysis
HCT-116 [5] = assay: Anticancer activity against Homo sapiens (human) HCT116 cells assessed as cells with abnormal large number of vacuoles in cytoplasm after 48 hr by inverted phase contrast microscopic analysis
HCT-116 [6] = assay: Anticancer activity against Homo sapiens (human) HCT116 cells assessed as abnormal morphological changes after 48 hr by inverted phase contrast microscopic analysis

Row | Compound | inhibition (HL-60 [1]) | IC50 (HL-60 [1]) [µM] | Activity (HCT-116 [2]) | inhibition (HCT-116 [3]) | IC50 (HCT-116 [3]) [µM] | Activity (HL-60 [4]) | Activity (HCT-116 [5]) | Activity (HCT-116 [6])
1 | CCCCn1c[n+](Cc2ccc(C[n+]3cn(CCCC)c4ccccc43)cc2)c2ccccc21 | Dose-dependent effect | 55.7 | Active | Dose-dependent effect | 18.7 | Active | – | –
2 | CCn1c[n+](Cc2ccc(C[n+]3cn(CC)c4ccccc43)cc2)c2ccccc21 | Dose-dependent effect | 39.5 | – | Dose-dependent effect | 0.3 | Active | Active | –
3 | O=c1[nH]cc(F)c(=O)[nH]1 [FLUOROURACIL] | Dose-dependent effect | 5.4 | – | Dose-dependent effect | – | – | – | –
4 | CCCn1c[n+](Cc2ccc(C[n+]3cn(CCC)c4ccccc43)cc2)c2ccccc21 | Dose-dependent effect | 49.4 | – | Dose-dependent effect | 1.4 | Active | – | Active
